How the values were obtained:
Assay in all cases: in vitro susceptibility, MIC by mini broth dilution
Assay type in all cases: cell-based
[1] = test system: Actinobacillus pleuropneumoniae CVCC262; conditions: strain CVCC262
How it was run: (§1)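 NCCLS-based mini broth dilution; inoculum from twice-streaked 35° C/20 h cultures, 1:200 in broth; compound two-fold series in DMSO, 11 steps, duplicates.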

Haemophilus parasuis = test system: Haemophilus parasuis
How it was run: as §1

[2] = test system: Pasteurella multocida CVCC399; conditions: strain CVCC399
How it was run: as §1

[3] = test system: Streptococcus equines CVCC556; conditions: strain CVCC556
How it was run: as §1

[4] = test system: Staphylococcus aureus CVCC26003; conditions: strain CVCC26003
How it was run: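 S. aureus CVCC26003 was revived and subcultured twice, 20 h each at 35° C, on solid medium, then diluted 1:200 in CAMHB liquid medium. Compounds received an 11-step two-fold DMSO dilution in parallel duplicate rows. MIC was read by mini broth dilution per NCCLS guidance.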

Compound | MIC values, Actinobacillus pleuropneumoniae CVCC262 [1] | MIC values, Haemophilus parasuis (Haemophilus parasuis) | MIC values, Pasteurella multocida CVCC399 [2] [ug/mi] | MIC values, Streptococcus equines CVCC556 [3] [ug/mi] | MIC values, Staphylococcus aureus CVCC26003 [4]
CC[C@H]1OC(=O)[C@H](C)[C@@H](O[C@H]2C[C@@](C)(OC)[C@](O)(CNc3cc(OC)cc(OC)c3)[C@H](C)O2)[C@H](C)[C@@H](O[C@@H]2O[C@H](C)C[C@H](N(C)C)[C@H]2O)[C@](C)(O)C[C@@H](C)NC[C@H](C)[C@@H](O)[C@]1(C)O [syzx-76, (2R,3S,4R,5S,8R,10R,11R,12S,13S,14R)-13-[(2,6-dideoxy-3-C-methyl-3-O-methyl-4-C-[(3,5-dimethoxyphenyl-amino)-methyl]-α-L-ribopyranosyl)oxy]-2-ethyl-3,4,10-trihydroxy-3,5,8,10,12,14-hexamethyl-11-[[3,4,6-trideoxy-3-(dimethylamino)-β-D-xylo-hexopyranosy]oxy]-1-oxa-7-azacyclopentadecan-15-one] | 64 ug/mi | 1 ug/mi | 4 | 2 | 2 ug/mi
CC[C@H]1OC(=O)[C@H](C)[C@@H](O[C@H]2C[C@@](C)(OC)[C@](O)(CNN3CCOCC3)[C@H](C)O2)[C@H](C)[C@@H](O[C@@H]2O[C@H](C)C[C@H](N(C)C)[C@H]2O)[C@](C)(O)C[C@@H](C)NC[C@H](C)[C@@H](O)[C@]1(C)O [syzx-48, (2R,3S,4R,5S,8R,10R,11R,12S,13S,14R)-13-[(2,6-dideoxy-3-C-methyl-3-O-methyl-4-C-[(morpholin-4-yl-amino)-methyl]-α-L-ribopyranosyl)oxy]-2-ethyl-3,4,10-trihydroxy-3,5,8,10,12,14-hexamethyl-11-[[3,4,6-trideoxy-3-(dimethylamino)-β-D-xylo-hexopyranosy]oxy]-1-oxa-7-azacyclopentadecan-15-one] | 16 ug/mi | ≦0.25 ug/mi | 1 | 0.5 | 0.5 ug/mi
CCC(CO)NC[C@]1(O)[C@H](C)O[C@@H](O[C@H]2[C@H](C)[C@@H](O[C@@H]3O[C@H](C)C[C@H](N(C)C)[C@H]3O)[C@](C)(O)C[C@@H](C)NC[C@H](C)[C@@H](O)[C@](C)(O)[C@@H](CC)OC(=O)[C@@H]2C)C[C@@]1(C)OC (stereo partly drawn) [syzx-51, (2R,3S,4R,5S,8R,10R,11R,12S,13S,14R)-13-[(2,6-dideoxy-3-C-methyl-3-O-methyl-4-C-[(1-hydroxymethyl-propylamino)-methyl]-α-L-ribopyranosyl)oxy]-2-ethyl-3,4,10-trihydroxy-3,5,8,10,12,14-hexamethyl-11-[[3,4,6-trideoxy-3-(dimethylamino)-β-D-xylo-hexopyranosy]oxy]-1-oxa-7-azacyclopentadecan-15-one] | 1 ug/mi | 2 ug/mi | 0.5 | 1 | 0.5 ug/mi
CCCN1C[C@H](C)[C@@H](O)[C@](C)(O)[C@@H](CC)OC(=O)[C@H](C)[C@@H](O[C@H]2C[C@@](C)(OC)[C@](O)(CNCc3cccnc3)[C@H](C)O2)[C@H](C)[C@@H](O[C@@H]2O[C@H](C)C[C@H](N(C)C)[C@H]2O)[C@](C)(O)C[C@H]1C [syzx-121] | 0.25 ug/mi | 0.25 ug/mi | 0.5 | 0.5 | 0.25 ug/mi
CCCN1C[C@H](C)[C@@H](O)[C@](C)(O)[C@@H](CC)OC(=O)[C@H](C)[C@@H](O[C@H]2C[C@@](C)(OC)[C@](O)(CNCC3(C)CC(N)CC(C)(C)C3)[C@H](C)O2)[C@H](C)[C@@H](O[C@@H]2O[C@H](C)C[C@H](N(C)C)[C@H]2O)[C@](C)(O)C[C@H]1C (some centres unmarked) [syzx-106] | 0.5 ug/mi | 0.5 ug/mi | 2 | 0.25 | 2 ug/mi
CC[C@H]1OC(=O)[C@H](C)[C@@H](O[C@H]2C[C@@](C)(OC)[C@](O)(CNCc3ccc(Cl)c(Cl)c3)[C@H](C)O2)[C@H](C)[C@@H](O[C@@H]2O[C@H](C)C[C@H](N(C)C)[C@H]2O)[C@](C)(O)C[C@@H](C)NC[C@H](C)[C@@H](O)[C@]1(C)O [syzx-57, (2R,3S,4R,5S,8R,10R,11R,12S,13S,14R)-13-[(2,6-dideoxy-3-C-methyl-3-O-methyl-4-C-[(3,4-dichloro-benzylamino)-methyl]-α-L-ribopyranosyl)oxy]-2-ethyl-3,4,10-trihydroxy-3,5,8,10,12,14-hexamethyl-11-[[3,4,6-trideoxy-3-(dimethylamino)-β-D-xylo-hexopyranosy]oxy]-1-oxa-7-azacyclopentadecan-15-one] | ≦0.25 ug/mi | ≦0.25 ug/mi | 32 | 4 | ≦0.25 ug/mi
CCCN1C[C@H](C)[C@@H](O)[C@](C)(O)[C@@H](CC)OC(=O)[C@H](C)[C@@H](O[C@H]2C[C@@](C)(OC)[C@](O)(CNCc3ccc([N+](=O)[O-])cc3)[C@H](C)O2)[C@H](C)[C@@H](O[C@@H]2O[C@H](C)C[C@H](N(C)C)[C@H]2O)[C@](C)(O)C[C@H]1C [syzx-119] | 0.25 ug/mi | 0.25 ug/mi | 1 | 0.25 | 0.25 ug/mi
CC[C@H]1OC(=O)[C@H](C)[C@@H](O[C@H]2C[C@@](C)(OC)[C@](O)(CNc3cc(Cl)ccc3C)[C@H](C)O2)[C@H](C)[C@@H](O[C@@H]2O[C@H](C)C[C@H](N(C)C)[C@H]2O)[C@](C)(O)C[C@@H](C)NC[C@H](C)[C@@H](O)[C@]1(C)O [syzx-94, (2R,3S,4R,5S,8R,10R,11R,12S,13S,14R)-13-[(2,6-dideoxy-3-C-methyl-3-O-methyl-4-C-[(5-chloro-o-methylphenyl-amino)-methyl]-α-L-ribopyranosyl)oxy]-2-ethyl-3,4,10-trihydroxy-3,5,8,10,12,14-hexamethyl-11-[[3,4,6-trideoxy-3-(dimethylamino)-β-D-xylo-hexopyranosy]oxy]-1-oxa-7-azacyclopentadecan-15-one] | 0.5 ug/mi | 0.5 ug/mi | 2 | 0.25 | 1 ug/mi

Results, then the compound that gave them:

MIC values, Actinobacillus pleuropneumoniae CVCC262 [1] | MIC values, Haemophilus parasuis (Haemophilus parasuis) | MIC values, Pasteurella multocida CVCC399 [2] [ug/mi] | MIC values, Streptococcus equines CVCC556 [3] [ug/mi] | MIC values, Staphylococcus aureus CVCC26003 [4] | Compound
4 ug/mi | 4 ug/mi | 4 | 0.5 | 4 ug/mi | CCCN1C[C@H](C)[C@@H](O)[C@](C)(O)[C@@H](CC)OC(=O)[C@H](C)[C@@H](O[C@H]2C[C@@](C)(OC)[C@](O)(CN3CCOCC3)[C@H](C)O2)[C@H](C)[C@@H](O[C@@H]2O[C@H](C)C[C@H](N(C)C)[C@H]2O)[C@](C)(O)C[C@H]1C [syzx-204]
2 ug/mi | 2 ug/mi | 8 | 0.25 | 4 ug/mi | CCCN1C[C@H](C)[C@@H](O)[C@](C)(O)[C@@H](CC)OC(=O)[C@H](C)[C@@H](O[C@H]2C[C@@](C)(OC)[C@](O)(CNc3cc(C(F)(F)F)cc(C(F)(F)F)c3)[C@H](C)O2)[C@H](C)[C@@H](O[C@@H]2O[C@H](C)C[C@H](N(C)C)[C@H]2O)[C@](C)(O)C[C@H]1C [syzx-230]
1 ug/mi | 0.5 ug/mi | 2 | 0.25 | 0.5 ug/mi | CCCN1C[C@H](C)[C@@H](O)[C@](C)(O)[C@@H](CC)OC(=O)[C@H](C)[C@@H](O[C@H]2C[C@@](C)(OC)[C@](O)(CNC(C)CC(=O)O)[C@H](C)O2)[C@H](C)[C@@H](O[C@@H]2O[C@H](C)C[C@H](N(C)C)[C@H]2O)[C@](C)(O)C[C@H]1C (some centres unmarked) [syzx-150]
0.25 ug/mi | 0.25 ug/mi | 2 | 0.5 | 0.25 ug/mi | CCCN1C[C@H](C)[C@@H](O)[C@](C)(O)[C@@H](CC)OC(=O)[C@H](C)[C@@H](O[C@H]2C[C@@](C)(OC)[C@](O)(CNCCc3ccncc3)[C@H](C)O2)[C@H](C)[C@@H](O[C@@H]2O[C@H](C)C[C@H](N(C)C)[C@H]2O)[C@](C)(O)C[C@H]1C [syzx-164]
0.5 ug/mi | 0.5 ug/mi | 2 | 1 | 0.5 ug/mi | CCCN1C[C@H](C)[C@@H](O)[C@](C)(O)[C@@H](CC)OC(=O)[C@H](C)[C@@H](O[C@H]2C[C@@](C)(OC)[C@](O)(CNC(=O)C(F)(F)F)[C@H](C)O2)[C@H](C)[C@@H](O[C@@H]2O[C@H](C)C[C@H](N(C)C)[C@H]2O)[C@](C)(O)C[C@H]1C [syzx-137]
